Experimental data taken from US20230167114A1, “MACROCYCLIC JAK INHIBITOR AND USE THEREOF” (Biopolar Hongye (Guangdong) Pharmaceutical Co., Ltd., priority 2020, published 2023).

What was measured:
Type in all cases: biochemical
JAK3 = target: T1, JAK3 (Homo sapiens, UniProt P52333); experiment: JAK kinase activity, homogeneous time-resolved fluorescence (JAK3 reaction system); details: ATP 2 μM, JAK3 protein 0.04 ng/μL; read-out: JAK 3 activity
T1 sequence (P52333 1-1124): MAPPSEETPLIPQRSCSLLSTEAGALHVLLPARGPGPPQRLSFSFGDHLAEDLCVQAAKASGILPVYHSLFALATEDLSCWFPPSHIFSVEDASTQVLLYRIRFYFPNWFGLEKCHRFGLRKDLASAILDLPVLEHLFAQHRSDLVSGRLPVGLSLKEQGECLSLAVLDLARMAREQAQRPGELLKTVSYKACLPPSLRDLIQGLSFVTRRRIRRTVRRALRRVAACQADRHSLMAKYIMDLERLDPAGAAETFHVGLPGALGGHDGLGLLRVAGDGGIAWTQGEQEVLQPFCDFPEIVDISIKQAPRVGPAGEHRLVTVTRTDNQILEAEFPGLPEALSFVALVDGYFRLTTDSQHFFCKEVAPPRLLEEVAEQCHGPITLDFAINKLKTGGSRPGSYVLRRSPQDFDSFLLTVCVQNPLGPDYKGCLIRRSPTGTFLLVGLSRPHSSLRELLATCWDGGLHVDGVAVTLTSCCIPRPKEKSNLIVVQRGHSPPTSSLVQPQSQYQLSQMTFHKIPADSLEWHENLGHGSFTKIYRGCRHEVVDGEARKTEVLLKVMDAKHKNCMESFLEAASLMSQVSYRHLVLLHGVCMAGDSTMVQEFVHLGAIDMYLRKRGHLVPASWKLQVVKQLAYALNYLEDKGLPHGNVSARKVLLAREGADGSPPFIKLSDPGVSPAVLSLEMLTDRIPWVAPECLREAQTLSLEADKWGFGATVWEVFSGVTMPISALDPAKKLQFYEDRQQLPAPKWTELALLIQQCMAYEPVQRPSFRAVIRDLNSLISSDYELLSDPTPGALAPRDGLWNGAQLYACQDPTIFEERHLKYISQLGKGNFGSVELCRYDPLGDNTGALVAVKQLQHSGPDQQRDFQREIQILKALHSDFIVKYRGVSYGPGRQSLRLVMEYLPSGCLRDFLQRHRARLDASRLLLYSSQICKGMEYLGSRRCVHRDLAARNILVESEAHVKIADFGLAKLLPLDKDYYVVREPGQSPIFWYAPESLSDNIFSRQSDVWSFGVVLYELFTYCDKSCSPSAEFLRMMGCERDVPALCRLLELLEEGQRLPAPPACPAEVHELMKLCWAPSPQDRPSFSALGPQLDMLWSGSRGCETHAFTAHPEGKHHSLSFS
Procedure: (§1) The activity measurement method of JAK kinase was to use homogeneous time-resolved fluorescence technique. The reaction was performed in 384 shallow well plates with a total reaction volume of 10 μL. The mixture of kinase protein, compound, ATP and substrate was carried out in a reaction buffer of 50 mM Hepes (pH7.0), NaN3 0.02%, BSA 0.01%, 0.1 mM orthocanadate, 5 mM MgCl2, and 1 mM DTT. After reacting for 1 hour, antibody capable of recognizing substrate phosphorylation and dye XL-615 and detection buffer (Cisbio) containing EDTA were added to the system. The reaction signal of kinase was detected by PE company's porous plate detector. The parameter settings were excitation light at 320 nm, emission light at 615 nm and 665 nm. The activity of JAK is indirectly reflected by the signal ratio of 665 nm and 615 nm. In the reaction, the background well without enzyme and the total enzyme activity well without compound were set.
(§2) The IC50 value of the compound inhibiting protein was obtained by the formula: Y=100/(1+10^((Log IC50−X)*HillSlope)).
In JAK3 reaction system, the concentration of ATP was 2 μM, and the concentration of JAK3 protein was 0.04 ng/μL.

TYK2 = TYK2 (Homo sapiens, UniProt P29597); experiment: JAK kinase activity, homogeneous time-resolved fluorescence (TYK2 reaction system); details: ATP 2 μM, TYK2 protein 0.2 ng/μL; read-out: TYK 2 activity
Procedure: as §1, §2
In TYK2 reaction system, the concentration of ATP was 2 μM and the concentration of TYK2 protein was 0.2 ng/μL.

JAK1 = JAK1 (Homo sapiens, UniProt P23458); experiment: JAK kinase activity, homogeneous time-resolved fluorescence (JAK1 reaction system); details: ATP 2 μM, JAK1 protein 0.2 ng/μL; read-out: JAK 1 activity
Procedure: as §1, §2
In JAK1 reaction system, the concentration of ATP was 2 μM, and the concentration of JAK1 protein was 0.2 ng/μL.

JAK2 = JAK2 (Homo sapiens, UniProt O60674); experiment: JAK kinase activity, homogeneous time-resolved fluorescence (JAK2 reaction system); details: ATP 2 μM, JAK2 protein 0.01 ng/μL
Procedure: as §1, §2
In JAK2 reaction system, the concentration of ATP was 2 μM, and the concentration of JAK2 protein was 0.01 ng/μL.

Sequence of JAK2 (O60674 whole entry): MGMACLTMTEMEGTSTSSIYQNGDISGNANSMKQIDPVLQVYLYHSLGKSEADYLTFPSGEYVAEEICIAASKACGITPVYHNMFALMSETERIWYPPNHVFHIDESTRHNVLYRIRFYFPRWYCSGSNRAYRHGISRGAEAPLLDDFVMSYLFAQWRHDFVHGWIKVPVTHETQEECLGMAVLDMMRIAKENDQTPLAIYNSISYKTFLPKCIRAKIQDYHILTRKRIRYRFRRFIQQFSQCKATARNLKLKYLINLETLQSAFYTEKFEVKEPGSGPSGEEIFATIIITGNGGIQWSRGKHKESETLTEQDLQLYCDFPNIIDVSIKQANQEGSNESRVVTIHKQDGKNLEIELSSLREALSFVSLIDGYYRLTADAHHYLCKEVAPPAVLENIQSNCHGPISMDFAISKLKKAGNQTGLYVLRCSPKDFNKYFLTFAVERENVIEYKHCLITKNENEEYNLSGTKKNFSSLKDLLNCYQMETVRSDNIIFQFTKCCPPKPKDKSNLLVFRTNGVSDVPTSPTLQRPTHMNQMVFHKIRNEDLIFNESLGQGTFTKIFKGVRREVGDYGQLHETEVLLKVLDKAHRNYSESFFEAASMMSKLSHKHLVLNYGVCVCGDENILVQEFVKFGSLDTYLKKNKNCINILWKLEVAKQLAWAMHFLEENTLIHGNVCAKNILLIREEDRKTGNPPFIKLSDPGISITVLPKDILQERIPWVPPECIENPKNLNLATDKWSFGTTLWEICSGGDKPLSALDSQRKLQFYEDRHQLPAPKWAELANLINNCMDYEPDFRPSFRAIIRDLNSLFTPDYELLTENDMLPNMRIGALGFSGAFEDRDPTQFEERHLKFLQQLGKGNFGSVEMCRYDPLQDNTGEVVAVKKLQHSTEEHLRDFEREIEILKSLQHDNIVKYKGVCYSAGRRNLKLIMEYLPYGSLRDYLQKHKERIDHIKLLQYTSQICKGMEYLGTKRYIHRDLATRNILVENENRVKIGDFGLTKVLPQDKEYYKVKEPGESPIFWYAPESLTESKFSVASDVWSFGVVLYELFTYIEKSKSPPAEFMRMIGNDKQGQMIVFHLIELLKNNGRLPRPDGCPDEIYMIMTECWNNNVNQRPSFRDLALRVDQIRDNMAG
Sequence of TYK2 (P29597 whole entry): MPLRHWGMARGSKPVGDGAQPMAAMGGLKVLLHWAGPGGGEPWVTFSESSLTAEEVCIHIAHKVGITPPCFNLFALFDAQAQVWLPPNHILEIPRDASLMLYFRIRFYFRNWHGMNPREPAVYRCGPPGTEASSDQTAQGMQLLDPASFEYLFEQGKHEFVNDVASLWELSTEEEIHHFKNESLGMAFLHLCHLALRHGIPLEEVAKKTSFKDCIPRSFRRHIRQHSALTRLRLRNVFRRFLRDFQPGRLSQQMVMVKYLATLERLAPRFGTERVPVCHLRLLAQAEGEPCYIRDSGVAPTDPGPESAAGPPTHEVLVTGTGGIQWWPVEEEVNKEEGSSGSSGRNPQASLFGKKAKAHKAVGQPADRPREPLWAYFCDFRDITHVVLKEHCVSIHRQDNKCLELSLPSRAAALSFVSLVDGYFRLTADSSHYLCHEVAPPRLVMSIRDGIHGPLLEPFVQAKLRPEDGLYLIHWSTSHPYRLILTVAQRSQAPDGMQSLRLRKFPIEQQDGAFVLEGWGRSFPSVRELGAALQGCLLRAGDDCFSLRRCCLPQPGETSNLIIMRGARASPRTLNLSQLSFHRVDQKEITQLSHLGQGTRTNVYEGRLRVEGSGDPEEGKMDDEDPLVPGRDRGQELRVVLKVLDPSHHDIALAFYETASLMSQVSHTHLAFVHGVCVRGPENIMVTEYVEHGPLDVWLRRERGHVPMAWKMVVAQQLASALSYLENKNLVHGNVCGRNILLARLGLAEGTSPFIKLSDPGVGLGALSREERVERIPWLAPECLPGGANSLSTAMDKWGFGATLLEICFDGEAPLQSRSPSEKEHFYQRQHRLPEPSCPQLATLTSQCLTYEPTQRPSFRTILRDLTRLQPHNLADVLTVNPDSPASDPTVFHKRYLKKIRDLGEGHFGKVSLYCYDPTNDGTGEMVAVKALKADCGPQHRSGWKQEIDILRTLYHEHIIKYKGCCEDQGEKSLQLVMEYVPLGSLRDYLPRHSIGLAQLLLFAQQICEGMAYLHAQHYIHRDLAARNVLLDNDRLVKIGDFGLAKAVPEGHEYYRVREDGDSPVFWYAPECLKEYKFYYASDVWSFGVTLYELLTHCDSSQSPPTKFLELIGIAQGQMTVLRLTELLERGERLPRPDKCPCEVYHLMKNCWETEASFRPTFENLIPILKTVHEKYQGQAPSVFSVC
Sequence of JAK1 (P23458 whole entry): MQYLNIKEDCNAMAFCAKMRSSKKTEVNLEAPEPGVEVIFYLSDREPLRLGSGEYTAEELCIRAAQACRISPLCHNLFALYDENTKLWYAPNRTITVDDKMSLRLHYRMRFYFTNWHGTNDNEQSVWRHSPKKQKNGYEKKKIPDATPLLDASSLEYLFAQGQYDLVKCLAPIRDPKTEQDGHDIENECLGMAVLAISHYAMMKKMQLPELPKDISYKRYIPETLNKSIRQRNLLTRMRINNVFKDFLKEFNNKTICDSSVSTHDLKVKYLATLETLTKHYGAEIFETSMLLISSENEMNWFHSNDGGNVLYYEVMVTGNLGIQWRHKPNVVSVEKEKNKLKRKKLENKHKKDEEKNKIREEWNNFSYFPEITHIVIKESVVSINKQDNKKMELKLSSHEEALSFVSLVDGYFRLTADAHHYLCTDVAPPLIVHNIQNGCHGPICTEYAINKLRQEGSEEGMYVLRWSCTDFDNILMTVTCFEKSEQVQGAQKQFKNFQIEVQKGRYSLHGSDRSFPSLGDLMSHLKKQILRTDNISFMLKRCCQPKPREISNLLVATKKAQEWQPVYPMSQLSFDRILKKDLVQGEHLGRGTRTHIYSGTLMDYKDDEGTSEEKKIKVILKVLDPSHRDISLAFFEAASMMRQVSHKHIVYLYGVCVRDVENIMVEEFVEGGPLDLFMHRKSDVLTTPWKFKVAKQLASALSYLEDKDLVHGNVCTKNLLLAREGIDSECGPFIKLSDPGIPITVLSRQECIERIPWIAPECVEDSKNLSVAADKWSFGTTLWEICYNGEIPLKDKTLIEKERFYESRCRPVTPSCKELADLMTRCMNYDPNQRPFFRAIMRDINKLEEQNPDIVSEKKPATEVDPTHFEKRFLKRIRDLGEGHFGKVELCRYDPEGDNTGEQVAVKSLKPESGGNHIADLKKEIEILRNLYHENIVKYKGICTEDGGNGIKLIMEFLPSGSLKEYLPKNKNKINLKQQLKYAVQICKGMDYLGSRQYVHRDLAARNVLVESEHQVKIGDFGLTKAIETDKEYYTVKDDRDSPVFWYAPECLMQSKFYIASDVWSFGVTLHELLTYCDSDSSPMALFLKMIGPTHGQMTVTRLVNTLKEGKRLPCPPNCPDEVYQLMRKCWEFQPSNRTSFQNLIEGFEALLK

IC50 (JAK3)	IC50 (TYK2)	IC50 (JAK1)	IC50 (JAK2)	SMILES
11 to 100 nM	11 to 100 nM	< 10 nM	< 10 nM	Cc1cnc2nc1Nc1cccc(c1)CCCNC(=O)c1ccc(cc1)-c1cnc(F)c(c1)N2 [Compound 17, 2^6-fluoro-4^5-methyl-3,5,10-triaza-4(2,4)-pyrimidina-2(3,5)-pyridina-1(1,4),6(1,3)-dibenzenacycloundecaphan-11-one]
1000 to 10000 nM	> 10000 nM	11 to 100 nM	1000 to 10000 nM	Cc1cnc2nc1NCCCCCNC(=O)c1ccc(cc1S(C)(=O)=O)-c1cnc(F)c(c1)N2 [Compound 20, 2^6-fluoro-4^5-methyl-1^3-methylsulfonyl-3,5,11-triaza-4(2,4)-pyrimidina-2(3,5)-pyridina-1(1,4)-benzenacyclododecaphan-12-one]
< 10 nM	11 to 100 nM	< 10 nM	< 10 nM	Cc1cnc2nc1Nc1cccc(c1)CCCCNC(=O)c1ccc(cc1)-c1cnc(F)c(c1)N2 [Compound 18, 2^6-fluoro-4^5-methyl-3,5,11-triaza-4(2,4)-pyrimidina-2(3,5)-pyridina-1(1,4),6(1,3)-dibenzenacyclododecaphan-12-one]
101 to 1000 nM	101 to 1000 nM	< 10 nM	11 to 100 nM	Cc1cnc2nc1Nc1cccc(c1)CCCC(=O)N1CCN(CC1)c1cnc(F)c(c1)N2 [Compound 35, 2^6-fluoro-4^5-methyl-3,5-diaza-4(2,4)-pyrimidina-1(1,4)-piperazina-2(3,5)-pyridina-6(1,3)-benzenacyclodecaphan-10-one]
11 to 100 nM	101 to 1000 nM	< 10 nM	< 10 nM	Cc1cnc2nc1Nc1cccc(c1)CCCNC(=O)c1ccc(cc1[N+](=O)[O-])-c1cnc(F)c(c1)N2 [Compound 38, 2^6-fluoro-4^5-methyl-1^3-nitro-3,5,10-triaza-4(2,4)-pyrimidina-2(3,5)-pyridina-1(1,4),6(1,3)-dibenzenacycloundecaphan-11-one]
11 to 100 nM	1000 to 10000 nM	< 10 nM	11 to 100 nM	Cc1cnc2nc1Nc1cccc(c1)CCNC(=O)c1ccc(cc1F)-c1cnc(F)c(c1)N2 [Compound 28, 1^3,2^6-difluoro-4^5-methyl-3,5,9-triaza-4(2,4)-pyrimidina-2(3,5)-pyridina-1(1,4),6(1,3)-dibenzenacyclodecaphan-10-one]
1000 to 10000 nM	1000 to 10000 nM	101 to 1000 nM	101 to 1000 nM	Cc1cnc2nc1NCCCCCNC(=O)c1ccc(cc1N)-c1cnc(F)c(c1)N2 [Compound 9, 1^3-amino-2^6-difluoro-4^5-methyl-3,5,11-triaza-4(2,4)-pyrimidina-2(3,5)-pyridina-1(1,4)-benzenacyclododecaphan-12-one]
101 to 1000 nM	1000 to 10000 nM	11 to 100 nM	11 to 100 nM	Cc1cnc2nc1Nc1cccc(c1)CCCNC(=O)c1ccc(cc1C(=O)O)-c1cnc(F)c(c1)N2 [Compound 37, 2^6-fluoro-4^5-methyl-11-oxo-3,5,10-triaza-4(2,4)-pyrimidina-2(3,5)-pyridina-1(1,4),6(1,3)-dibenzenacycloundecaphan-1^3 - formic acid]
101 to 1000 nM	> 10000 nM	101 to 1000 nM	101 to 1000 nM	Cc1cnc2nc1NCCCCCNC(=O)c1ccc(c(F)c1F)-c1cnc(F)c(c1)N2 [Compound 34, 1^2,l^3,2^6-trifluoro-4^5-methyl-3,5,11-triaza-4(2,4)-pyrimidina-2(3,5)-pyridina-1(1,4)-benzenacydododecaphan-12-one]
1000 to 10000 nM	> 10000 nM	101 to 1000 nM	1000 to 10000 nM	Cc1cnc2nc1NCCCCCNC(=O)c1ccc(cc1)-c1cnc(F)c(c1)N2 [Compound 1, 2^6-fluoro-4^5-methyl-3,5,11-triaza-4 (2,4)-pyrimidina-2(3,5)-pyridina-1(1,4)-benzenacyclododecaphan-12-one]
1000 to 10000 nM	> 10000 nM	1000 to 10000 nM	101 to 1000 nM	Cc1cnc2nc1NCCCCCNC(=O)c1c(F)cc(cc1F)-c1cnc(F)c(c1)N2 [Compound 39, 1^3,1^5,2^6-trifluoro-4^5-methyl-3,5,11-triaza-4(2,4)-pyrimidina-2(3,5)-pyridina-1(1,4)-benzenacyclododecaphan-12-one]
1000 to 10000 nM	1000 to 10000 nM	11 to 100 nM	101 to 1000 nM	Cc1cnc2nc1NCCCCNC(=O)c1ccc(cc1F)-c1cnc(F)c(c1)N2 [Compound 7, 1^2,2^6-difluoro-4^5-methyl-3,5,10-triaza-4(2,4)-pyrimidina-2(3,5)-pyridina-1(1,4)-benzenacycloundecaphan-11-one]
11 to 100 nM	101 to 1000 nM	< 10 nM	< 10 nM	COC(=O)c1cc2ccc1C(=O)NCCCc1cccc(c1)Nc1nc(ncc1C)Nc1cc-2cnc1F [Compound 36, Methyl 2^6-fluoro-4^5-methyl-11-oxo-3,5,10-triaza-4(2,4)-pyrimidina-2(3,5)-pyridina-1(1,4),6(1,3)-dibenzenacycloundecaphan-1^3-carboxylate]
101 to 1000 nM	101 to 1000 nM	11 to 100 nM	11 to 100 nM	Cc1cnc2nc1Nc1cc(ccc1O)CCNC(=O)c1ccc(cc1)-c1cnc(F)c(c1)N2 [Compound 48, 2^6-fluoro-6^6-hydroxy-4^5-methyl-3,5,9-triaza-4(2,4)-pyrimidina-2(3,5)-pyridina-1-2,(1,4),6(1,3)-dibenzenacyclodecaphan-10-one]
101 to 1000 nM	1000 to 10000 nM	11 to 100 nM	11 to 100 nM	Cc1cnc2nc1Nc1cc(ccc1F)CCCNC(=O)c1ncc(cc1F)-c1cnc(F)c(c1)N2 [Compound 45, 1^3,2^6,6^6-trifluoro-4^5-methyl-3,5,10-triaza-4(2,4)-pyrimidina-1(5,2),2(3,5)-bipyridina-6(1,3)-benzenacycloundecaphan-11-one]
1000 to 10000 nM	1000 to 10000 nM	101 to 1000 nM	101 to 1000 nM	Cc1cc2ccc1C(=O)NCCCCCNc1nc(ncc1C)Nc1cc-2cnc1F [Compound 11, 2^6-fluoro-l^3,4^5-dimethyl-3,5,11-triaza-4(2,4)-pyrimidina-2(3,5)-pyridina-1(1,4)-benzenacyclododecaphan-12-one]
11 to 100 nM	101 to 1000 nM	< 10 nM	< 10 nM	Cc1cnc2nc1Nc1cc(F)cc(c1)CCNC(=O)c1ccc(cc1S(C)(=O)=O)-c1cnc(F)c(c1)N2 [Compound 46, 2^6,6^5-difluoro-4^5-methyl-1^3(methylsulfonyl)-3,5,9-triaza-4(2,4)-pyrimidina-2(3,5)-pyridina-1(1,4),6(1,3)-dibenzenacyclodecaphan-10-one]
1000 to 10000 nM	1000 to 10000 nM	101 to 1000 nM	101 to 1000 nM	Cc1cnc2nc1NCCCCCCCNC(=O)c1ccc(cc1F)-c1cnc(F)c(c1)N2 [Compound 12, I^3,2^6-difluoro-4^5-methyl-3,5,13-triaza-4(2,4)-pyrimidina-2(3,5)-pyridina-1(1,4)-benzenacydododecaphan-12-one]
